# Measured values taken from PMC9798004 (Frontiers in Psychiatry, 2022).
# Columns and labels:
# GPR1 = biological target: T1, GPR1 (Homo sapiens, UniProt P46091); assay: PathHunter β-arrestin assay; type: cell-based; conditions: screen, control agonist; CHO, 37C, 2HR
# T1 construct: purchased Eurofins DiscoverX (PathHunter gpcrMAX)
# T1 sequence (P46091 1-355): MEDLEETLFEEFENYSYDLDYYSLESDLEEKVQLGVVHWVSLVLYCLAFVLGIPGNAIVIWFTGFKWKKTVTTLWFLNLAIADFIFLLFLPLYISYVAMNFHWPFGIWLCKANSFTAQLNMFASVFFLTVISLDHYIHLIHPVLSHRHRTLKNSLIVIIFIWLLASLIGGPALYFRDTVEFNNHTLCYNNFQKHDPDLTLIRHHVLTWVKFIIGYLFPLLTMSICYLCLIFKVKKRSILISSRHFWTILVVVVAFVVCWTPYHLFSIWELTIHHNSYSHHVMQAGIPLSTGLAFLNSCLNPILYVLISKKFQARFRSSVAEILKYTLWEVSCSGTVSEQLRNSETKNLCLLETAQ
# EDG1 = biological target: T2, EDG1 (Homo sapiens, UniProt P21453); assay: PathHunter β-arrestin assay; type: cell-based; conditions: screen, control agonist; CHO, 37C, 2HR
# T2 construct: purchased Eurofins DiscoverX (PathHunter gpcrMAX)
# EDG3 = biological target: T3, EDG3 (Homo sapiens, UniProt Q99500); assay: PathHunter β-arrestin assay; type: cell-based; conditions: screen, control agonist; CHO, 37C, 2HR
# T3 construct: purchased Eurofins DiscoverX (PathHunter gpcrMAX)
# EDG5 = biological target: T4, EDG5 (Homo sapiens, UniProt O95136); assay: PathHunter β-arrestin assay; type: cell-based; conditions: screen, control agonist; CHO, 37C, 2HR
# T4 construct: purchased Eurofins DiscoverX (PathHunter gpcrMAX)
# EDG6 = biological target: T5, EDG6 (Homo sapiens, UniProt O95977); assay: PathHunter β-arrestin assay; type: cell-based; conditions: screen, control agonist; CHO, 37C, 4HR
# T5 construct: purchased Eurofins DiscoverX (PathHunter gpcrMAX)
# GPR120 = biological target: T6, GPR120 (Homo sapiens, UniProt Q5NUL3); assay: PathHunter β-arrestin assay; type: cell-based; conditions: screen, control agonist; CHO, 37C, 2HR
# T6 construct: purchased Eurofins DiscoverX (PathHunter gpcrMAX)
# FFAR1 = biological target: T7, FFAR1 (Homo sapiens, UniProt O14842); assay: PathHunter β-arrestin assay; type: cell-based; conditions: screen, control agonist; DLD1, 37C, 4HR
# T7 construct: purchased Eurofins DiscoverX (PathHunter gpcrMAX)
# DRD2S = DRD2S (Homo sapiens, UniProt P14416); conditions: screen, control agonist; CHO, RT, 2HR
# DRD2L = DRD2L (Homo sapiens, UniProt P14416); assay: PathHunter β-arrestin assay; type: cell-based; conditions: control agonist
# EBI2 = biological target: T8, EBI2 (Homo sapiens, UniProt P32249); assay: PathHunter β-arrestin assay; type: cell-based; conditions: screen, control agonist; CHO, RT, 2HR
# T8 construct: purchased Eurofins DiscoverX (PathHunter gpcrMAX)
# ADRA1B = biological target: T9, ADRA1B (Homo sapiens, UniProt P35368); assay: PathHunter β-arrestin assay; type: cell-based; conditions: screen, control agonist; CHO, 37C, 2HR
# T9 construct: purchased Eurofins DiscoverX (PathHunter gpcrMAX)
# FPR1 = biological target: T10, FPR1 (Homo sapiens, UniProt P21462); assay: PathHunter β-arrestin assay; type: cell-based; conditions: control agonist
# T10 sequence (P21462 1-350): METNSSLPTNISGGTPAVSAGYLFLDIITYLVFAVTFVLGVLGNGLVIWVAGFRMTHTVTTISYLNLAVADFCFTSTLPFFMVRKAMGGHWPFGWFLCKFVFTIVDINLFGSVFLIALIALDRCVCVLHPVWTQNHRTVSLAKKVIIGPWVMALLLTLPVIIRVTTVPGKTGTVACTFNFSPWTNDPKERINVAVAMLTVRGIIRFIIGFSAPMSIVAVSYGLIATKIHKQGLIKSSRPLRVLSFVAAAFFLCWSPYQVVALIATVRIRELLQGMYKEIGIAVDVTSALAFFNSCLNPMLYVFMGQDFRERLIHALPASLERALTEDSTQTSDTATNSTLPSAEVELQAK
# FPRL1 = biological target: T11, FPRL1 (Homo sapiens, UniProt P25090); assay: PathHunter β-arrestin assay; type: cell-based; conditions: screen, control agonist; CHO, 37C, 2HR
# T11 construct: purchased Eurofins DiscoverX (PathHunter gpcrMAX)
# GPR103 = biological target: T12, GPR103 (Homo sapiens, UniProt Q96P65); assay: PathHunter β-arrestin assay; type: cell-based; conditions: screen, control agonist; CHO, RT, 2HR
# T12 construct: purchased Eurofins DiscoverX (PathHunter gpcrMAX)
# T12 sequence (Q96P65 1-431): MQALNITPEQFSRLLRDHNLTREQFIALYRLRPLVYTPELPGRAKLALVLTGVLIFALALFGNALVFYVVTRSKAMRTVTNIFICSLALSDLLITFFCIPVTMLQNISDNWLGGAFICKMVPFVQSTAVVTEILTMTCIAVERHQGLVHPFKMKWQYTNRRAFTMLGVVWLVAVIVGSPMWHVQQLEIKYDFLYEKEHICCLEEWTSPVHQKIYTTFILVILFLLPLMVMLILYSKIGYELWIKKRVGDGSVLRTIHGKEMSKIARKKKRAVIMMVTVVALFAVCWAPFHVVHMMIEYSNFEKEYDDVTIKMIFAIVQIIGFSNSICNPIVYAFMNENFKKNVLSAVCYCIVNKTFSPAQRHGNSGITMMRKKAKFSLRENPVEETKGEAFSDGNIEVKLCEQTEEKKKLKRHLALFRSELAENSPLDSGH
# GPR109B = biological target: T13, GPR109B (Homo sapiens, UniProt P49019); assay: PathHunter β-arrestin assay; type: cell-based; conditions: screen, control agonist; CHO, 37C, 2HR
# T13 construct: purchased Eurofins DiscoverX (PathHunter gpcrMAX)
# EDG4 = biological target: T14, EDG4 (Homo sapiens, UniProt Q9HBW0); assay: PathHunter β-arrestin assay; type: cell-based; conditions: screen, control agonist; CHO, RT, 3HR
# T14 construct: purchased Eurofins DiscoverX (PathHunter gpcrMAX)
# EDG7 = biological target: T15, EDG7 (Homo sapiens, UniProt Q9UBY5); assay: PathHunter β-arrestin assay; type: cell-based; conditions: screen, control agonist; CHO, RT, 3HR
# T15 construct: purchased Eurofins DiscoverX (PathHunter gpcrMAX)
# GPR92 = biological target: T16, GPR92 (Homo sapiens, UniProt Q9H1C0); assay: PathHunter β-arrestin assay; type: cell-based; conditions: screen, control agonist; CHO, RT, 3HR
# T16 construct: purchased Eurofins DiscoverX (PathHunter gpcrMAX)
# CXCR6 = biological target: T17, CXCR6 (Homo sapiens, UniProt O00574); assay: PathHunter β-arrestin assay; type: cell-based; conditions: screen, control agonist; HEK, 37C, 2HR
# T17 construct: purchased Eurofins DiscoverX (PathHunter gpcrMAX)
# [1] = follow-up concentration-response assays
# Chain of DRD2L (P14416 whole entry): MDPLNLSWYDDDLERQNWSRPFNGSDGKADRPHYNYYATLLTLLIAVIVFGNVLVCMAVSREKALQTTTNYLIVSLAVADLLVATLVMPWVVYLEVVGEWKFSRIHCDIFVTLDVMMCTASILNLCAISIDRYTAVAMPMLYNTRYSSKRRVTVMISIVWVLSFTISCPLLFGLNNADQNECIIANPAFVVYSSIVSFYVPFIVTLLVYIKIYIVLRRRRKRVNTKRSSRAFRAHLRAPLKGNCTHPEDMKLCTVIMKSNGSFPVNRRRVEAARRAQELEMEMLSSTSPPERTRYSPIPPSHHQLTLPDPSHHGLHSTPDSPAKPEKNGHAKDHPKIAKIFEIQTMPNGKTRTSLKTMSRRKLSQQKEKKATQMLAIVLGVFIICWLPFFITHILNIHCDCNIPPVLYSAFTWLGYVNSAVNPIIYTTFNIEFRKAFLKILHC
# T2 sequence (P21453 whole entry): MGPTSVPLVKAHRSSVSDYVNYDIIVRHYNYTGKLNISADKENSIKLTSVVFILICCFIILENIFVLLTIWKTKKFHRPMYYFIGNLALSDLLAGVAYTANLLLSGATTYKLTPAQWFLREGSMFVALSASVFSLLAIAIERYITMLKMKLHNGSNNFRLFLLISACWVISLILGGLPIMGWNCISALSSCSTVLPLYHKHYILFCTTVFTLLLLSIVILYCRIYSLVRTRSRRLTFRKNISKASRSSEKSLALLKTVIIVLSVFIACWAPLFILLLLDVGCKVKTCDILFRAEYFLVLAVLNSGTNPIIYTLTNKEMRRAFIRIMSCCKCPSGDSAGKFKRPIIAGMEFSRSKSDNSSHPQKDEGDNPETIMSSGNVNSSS
# T14 sequence (Q9HBW0 whole entry): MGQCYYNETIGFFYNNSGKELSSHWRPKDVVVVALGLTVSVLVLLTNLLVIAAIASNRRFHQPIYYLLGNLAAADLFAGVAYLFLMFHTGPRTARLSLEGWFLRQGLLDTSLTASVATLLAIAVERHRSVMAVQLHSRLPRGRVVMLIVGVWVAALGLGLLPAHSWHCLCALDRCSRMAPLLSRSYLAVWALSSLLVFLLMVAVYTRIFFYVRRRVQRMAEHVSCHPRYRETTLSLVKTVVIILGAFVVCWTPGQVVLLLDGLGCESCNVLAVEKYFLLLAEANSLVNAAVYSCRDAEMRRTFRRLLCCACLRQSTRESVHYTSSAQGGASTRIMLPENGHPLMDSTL
# Chain of DRD2S (P14416 1-414 isoform P14416-2): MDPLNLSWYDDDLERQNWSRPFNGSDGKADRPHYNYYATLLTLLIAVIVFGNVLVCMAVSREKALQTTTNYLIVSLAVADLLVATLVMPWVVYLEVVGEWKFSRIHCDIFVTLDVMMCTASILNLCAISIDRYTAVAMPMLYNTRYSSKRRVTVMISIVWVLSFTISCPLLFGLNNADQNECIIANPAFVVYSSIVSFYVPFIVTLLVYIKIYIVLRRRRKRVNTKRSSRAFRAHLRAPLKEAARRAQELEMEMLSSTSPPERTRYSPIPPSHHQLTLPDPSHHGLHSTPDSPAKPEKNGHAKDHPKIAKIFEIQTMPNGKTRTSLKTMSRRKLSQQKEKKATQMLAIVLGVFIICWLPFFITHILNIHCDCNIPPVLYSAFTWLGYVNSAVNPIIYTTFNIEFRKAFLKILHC
# T7 sequence (O14842 whole entry): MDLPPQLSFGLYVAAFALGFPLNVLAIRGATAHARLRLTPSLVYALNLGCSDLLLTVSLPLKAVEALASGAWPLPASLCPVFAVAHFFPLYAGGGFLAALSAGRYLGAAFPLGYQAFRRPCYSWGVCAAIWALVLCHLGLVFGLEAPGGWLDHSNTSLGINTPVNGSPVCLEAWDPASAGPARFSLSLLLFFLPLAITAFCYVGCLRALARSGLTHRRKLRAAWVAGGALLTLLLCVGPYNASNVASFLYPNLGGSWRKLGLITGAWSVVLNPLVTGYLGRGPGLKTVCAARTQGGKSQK
# T15 sequence (Q9UBY5 whole entry): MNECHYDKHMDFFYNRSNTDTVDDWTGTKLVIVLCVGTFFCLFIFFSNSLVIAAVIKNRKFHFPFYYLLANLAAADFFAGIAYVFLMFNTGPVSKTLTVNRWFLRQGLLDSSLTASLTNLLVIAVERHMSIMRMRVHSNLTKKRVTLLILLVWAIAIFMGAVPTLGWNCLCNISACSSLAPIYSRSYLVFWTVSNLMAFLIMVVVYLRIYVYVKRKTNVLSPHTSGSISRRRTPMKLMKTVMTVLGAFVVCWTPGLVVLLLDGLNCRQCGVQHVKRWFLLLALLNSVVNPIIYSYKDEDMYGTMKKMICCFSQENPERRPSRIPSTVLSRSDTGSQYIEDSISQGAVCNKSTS
# T3 sequence (Q99500 whole entry): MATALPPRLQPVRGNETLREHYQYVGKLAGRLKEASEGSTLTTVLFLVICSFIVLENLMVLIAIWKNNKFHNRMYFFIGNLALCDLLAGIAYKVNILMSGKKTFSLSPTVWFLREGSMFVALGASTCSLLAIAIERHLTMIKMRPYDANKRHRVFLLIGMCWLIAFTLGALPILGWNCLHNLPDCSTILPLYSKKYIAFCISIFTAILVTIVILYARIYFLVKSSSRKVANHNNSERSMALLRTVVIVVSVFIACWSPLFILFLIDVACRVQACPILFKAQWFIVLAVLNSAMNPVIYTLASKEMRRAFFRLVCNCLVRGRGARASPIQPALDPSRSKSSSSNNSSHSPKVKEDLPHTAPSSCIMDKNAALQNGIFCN
# T5 sequence (O95977 whole entry): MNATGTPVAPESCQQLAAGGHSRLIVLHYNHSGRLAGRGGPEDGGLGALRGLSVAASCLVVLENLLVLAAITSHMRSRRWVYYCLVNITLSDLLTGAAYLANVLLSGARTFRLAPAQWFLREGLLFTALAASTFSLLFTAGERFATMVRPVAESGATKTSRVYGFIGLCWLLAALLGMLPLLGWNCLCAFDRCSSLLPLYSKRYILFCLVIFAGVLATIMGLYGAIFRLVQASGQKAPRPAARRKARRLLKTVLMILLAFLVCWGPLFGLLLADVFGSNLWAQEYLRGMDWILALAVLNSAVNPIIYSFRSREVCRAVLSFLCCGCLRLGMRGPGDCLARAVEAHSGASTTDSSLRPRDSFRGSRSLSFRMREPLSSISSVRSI
# T16 sequence (Q9H1C0 whole entry): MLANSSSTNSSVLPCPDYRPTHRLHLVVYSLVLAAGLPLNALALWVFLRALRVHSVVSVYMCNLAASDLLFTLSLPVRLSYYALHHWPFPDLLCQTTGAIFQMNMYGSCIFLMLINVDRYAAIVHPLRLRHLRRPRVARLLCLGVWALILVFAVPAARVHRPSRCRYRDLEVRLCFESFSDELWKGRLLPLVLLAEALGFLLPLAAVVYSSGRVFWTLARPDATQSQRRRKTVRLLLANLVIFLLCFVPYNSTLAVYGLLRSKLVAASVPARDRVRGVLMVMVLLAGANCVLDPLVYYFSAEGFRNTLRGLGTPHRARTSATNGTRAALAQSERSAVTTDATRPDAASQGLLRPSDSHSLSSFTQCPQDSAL
# T8 sequence (P32249 whole entry): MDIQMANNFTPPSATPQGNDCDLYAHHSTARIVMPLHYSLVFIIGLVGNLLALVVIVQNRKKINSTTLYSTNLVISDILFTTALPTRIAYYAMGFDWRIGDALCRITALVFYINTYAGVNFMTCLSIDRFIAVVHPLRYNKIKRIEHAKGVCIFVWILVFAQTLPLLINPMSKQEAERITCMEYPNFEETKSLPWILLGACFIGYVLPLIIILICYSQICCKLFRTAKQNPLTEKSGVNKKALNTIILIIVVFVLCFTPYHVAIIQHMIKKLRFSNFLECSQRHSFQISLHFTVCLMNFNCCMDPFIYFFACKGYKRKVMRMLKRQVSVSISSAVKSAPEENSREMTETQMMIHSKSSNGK
# T13 sequence (P49019 whole entry): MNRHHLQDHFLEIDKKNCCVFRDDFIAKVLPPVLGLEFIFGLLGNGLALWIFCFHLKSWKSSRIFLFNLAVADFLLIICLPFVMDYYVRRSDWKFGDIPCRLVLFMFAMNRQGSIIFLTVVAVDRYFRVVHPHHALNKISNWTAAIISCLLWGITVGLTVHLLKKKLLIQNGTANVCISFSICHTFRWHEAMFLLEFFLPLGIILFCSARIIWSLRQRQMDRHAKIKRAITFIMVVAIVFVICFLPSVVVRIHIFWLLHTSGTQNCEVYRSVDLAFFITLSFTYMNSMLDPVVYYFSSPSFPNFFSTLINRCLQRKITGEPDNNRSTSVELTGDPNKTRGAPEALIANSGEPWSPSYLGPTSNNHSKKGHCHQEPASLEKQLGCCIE
# T9 sequence (P35368 whole entry): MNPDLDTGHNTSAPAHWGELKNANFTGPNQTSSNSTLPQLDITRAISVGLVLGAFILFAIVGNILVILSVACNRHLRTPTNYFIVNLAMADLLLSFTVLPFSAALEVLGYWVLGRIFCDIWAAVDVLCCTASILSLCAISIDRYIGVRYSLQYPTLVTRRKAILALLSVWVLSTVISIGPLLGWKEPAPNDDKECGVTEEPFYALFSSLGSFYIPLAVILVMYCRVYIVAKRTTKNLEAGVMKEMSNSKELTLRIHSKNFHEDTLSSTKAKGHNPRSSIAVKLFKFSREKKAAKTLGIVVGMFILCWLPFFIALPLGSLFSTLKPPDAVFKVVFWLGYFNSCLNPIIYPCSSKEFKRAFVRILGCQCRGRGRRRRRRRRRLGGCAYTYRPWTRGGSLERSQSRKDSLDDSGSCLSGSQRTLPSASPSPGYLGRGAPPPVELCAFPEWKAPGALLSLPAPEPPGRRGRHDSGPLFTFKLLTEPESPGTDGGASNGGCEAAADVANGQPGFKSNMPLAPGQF
molecule,measurement,setting,value
Chemerin: control agonist,EC80,GPR1,4.61 nM
CCCCCCCCCCCCC/C=C/[C@@H](O)[C@@H](N)COP(=O)(O)O [S-1-P],EC80,EDG1,117 nM
same,EC80,EDG3,194 nM
same,EC80,EDG5,119 nM
same,EC80,EDG6,180 nM
O=C(O)CCc1ccc(NCc2cccc(Oc3ccccc3)c2)cc1 [GW9508],EC80,GPR120,21500 nM
same,EC80,FFAR1,402 nM
NCCc1ccc(O)c(O)c1 [Dopamine],EC80,DRD2S,300 nM
same,EC80,DRD2L; [1],200 nM
same,EC80,"DRD2L; screen, CHO, 37C, 2HR",100 nM
"C[C@H](CCCC(C)(C)O)[C@H]1CC[C@H]2[C@@H]3[C@H](O)C=C4C[C@@H](O)CC[C@]4(C)[C@H]3CC[C@]12C [7a,25-Dihydroxycholesterol]",EC80,EBI2,23.3 nM
CNC[C@H](O)c1cccc(O)c1 [Phenylephrine],EC80,ADRA1B,133 nM
WKYMVm-NH2,EC80,FPR1; [1],8.52 nM
same,EC80,"FPR1; screen, CHO, 37C, 2HR",8.52 nM
same,EC80,FPRL1,3.91 nM
QRFP-26,EC80,GPR103,14.2 nM
CCCCCC(O)CC(=O)O (stereo not drawn) [3-Hydroxyoctanoic Acid],EC80,GPR109B,904000 nM
CCCCCCCC/C=C\CCCCCCCC(=O)OC[C@@H](O)COP(=O)(O)O [Oleoyl LPA],EC80,EDG4,1960 nM
same,EC80,EDG7,3480 nM
same,EC80,GPR92,4280 nM
"CXCL16: control agonist (protein, UniProt Q9H2A7 30-254, looked up) C-X-C motif chemokine 16: NEGSVTGSCYCGKRISSDSPPSVQFMNRLRKHLRAYHRCLYYTRFQLLSWSVCGGNKDPWVQELMSCLDLKECGHAYSGIVAHQKHLLPTSPPISQASEGASSDIHTPAQMLLSTLQSTQRPTLPVGSLSSDKELTRPNETTIHTAGHSLAAGPEAGENQKQPEKNAGPTARTSATVPVLCLLAIIFILTAALSYVLCKRRRGQSPQSSPDLPVHYIPVAPDSNT",EC80,CXCR6,1.39 nM
